Test results published in the supplement of paper PMC10307832.

Columns and labels:
Assay in all cases: relative viability (nuclei count vs DMSO), 5 days (fraction); higher = more cells survive
AZ628 + Linsitinib = compound: CC1=C(C=C(C=C1)NC(=O)C2=CC(=CC=C2)C(C)(C)C#N)NC3=CC4=C(C=C3)N=CN(C4=O)C [AZ628] + C[C@]1(O)C[C@@H](c2nc(-c3ccc4ccc(-c5ccccc5)nc4c3)c3c(N)nccn32)C1 [Linsitinib] (partner 1 µM)
Outline: (§1)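 After 5 days of treatment, lung cancer cells in 1536-well plates were fixed and stained in a single step (final 0.05% Triton X-100, 1% formaldehyde, 1 ug/ml Hoechst) and their nuclei counted on 4× images. Treatment had been applied by pin tool the day after seeding as one drug alone or as a fixed anchor-drug dose with five library-drug doses (not always all listed) in √10 steps. Relative viability is the nuclei count of treated wells divided by that of vehicle wells, and values are medians of duplicate plates.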

QS11 + AZD7762 = compound: C1CC2=C(C1)C=C(C=C2)OC3=NC(=C4C(=N3)N(C=N4)CC5=CC=C(C=C5)C6=CC=CC=C6)N[C@@H](CC7=CC=CC=C7)CO [QS11] + NC(=O)Nc1cc(-c2cccc(F)c2)sc1C(=O)N[C@H]1CCCNC1 [AZD7762] (partner 0.2 µM)
Outline: as §1

AZ628 + Palbociclib = compound: CC1=C(C=C(C=C1)NC(=O)C2=CC(=CC=C2)C(C)(C)C#N)NC3=CC4=C(C=C3)N=CN(C4=O)C [AZ628] + CC(=O)c1c(C)c2cnc(Nc3ccc(N4CCNCC4)cn3)nc2n(C2CCCC2)c1=O [Palbociclib] (partner 0.5 µM)
Outline: as §1

AZ628 + Tozasertib = compound: CC1=C(C=C(C=C1)NC(=O)C2=CC(=CC=C2)C(C)(C)C#N)NC3=CC4=C(C=C3)N=CN(C4=O)C [AZ628] + Cc1cc(Nc2cc(N3CCN(C)CC3)nc(Sc3ccc(NC(=O)C4CC4)cc3)n2)n[nH]1 [Tozasertib] (partner 0.1 µM)
Outline: as §1

## 201T
AZ628 + Linsitinib; first compound 0.08 µM
  relative viability: 1.06
AZ628 + Linsitinib; first compound 0.253 µM
  relative viability: 0.978
AZ628 + Linsitinib; first compound 0.8 µM
  relative viability: 1.07
AZ628 + Linsitinib; first compound 2.53 µM
  relative viability: 1
AZ628 + Linsitinib; first compound 8 µM
  relative viability: 0.998
QS11 + AZD7762; first compound 0.08 µM
  relative viability: 0.669
QS11 + AZD7762; first compound 0.253 µM
  relative viability: 0.748
QS11 + AZD7762; first compound 0.8 µM
  relative viability: 0.591
QS11 + AZD7762; first compound 2.53 µM
  relative viability: 0.619
QS11 + AZD7762; first compound 8 µM
  relative viability: 0.617
AZ628 + Palbociclib; first compound 0.08 µM
  relative viability: 0.368
AZ628 + Palbociclib; first compound 0.253 µM
  relative viability: 0.358
AZ628 + Palbociclib; first compound 0.8 µM
  relative viability: 0.381
AZ628 + Palbociclib; first compound 2.53 µM
  relative viability: 0.39
AZ628 + Palbociclib; first compound 8 µM
  relative viability: 0.366
AZ628 + Tozasertib; first compound 0.08 µM
  relative viability: 0.939
AZ628 + Tozasertib; first compound 0.253 µM
  relative viability: 0.861
AZ628 + Tozasertib; first compound 0.8 µM
  relative viability: 1.04
AZ628 + Tozasertib; first compound 2.53 µM
  relative viability: 0.899
AZ628 + Tozasertib; first compound 8 µM
  relative viability: 0.89

## NCI-H358
AZ628 + Linsitinib; first compound 0.08 µM
  relative viability: 0.644
AZ628 + Linsitinib; first compound 0.253 µM
  relative viability: 0.622
AZ628 + Linsitinib; first compound 0.8 µM
  relative viability: 0.66
AZ628 + Linsitinib; first compound 2.53 µM
  relative viability: 0.582
AZ628 + Linsitinib; first compound 8 µM
  relative viability: 0.398
QS11 + AZD7762; first compound 0.08 µM
  relative viability: 0.542
QS11 + AZD7762; first compound 0.253 µM
  relative viability: 0.474
QS11 + AZD7762; first compound 0.8 µM
  relative viability: 0.529
QS11 + AZD7762; first compound 2.53 µM
  relative viability: 0.6
QS11 + AZD7762; first compound 8 µM
  relative viability: 0.681
AZ628 + Palbociclib; first compound 0.08 µM
  relative viability: 0.126
AZ628 + Palbociclib; first compound 0.253 µM
  relative viability: 0.131
AZ628 + Palbociclib; first compound 0.8 µM
  relative viability: 0.136
AZ628 + Palbociclib; first compound 2.53 µM
  relative viability: 0.142
AZ628 + Palbociclib; first compound 8 µM
  relative viability: 0.123
AZ628 + Tozasertib; first compound 0.08 µM
  relative viability: 0.123
AZ628 + Tozasertib; first compound 0.253 µM
  relative viability: 0.114
AZ628 + Tozasertib; first compound 0.8 µM
  relative viability: 0.1
AZ628 + Tozasertib; first compound 2.53 µM
  relative viability: 0.117
AZ628 + Tozasertib; first compound 8 µM
  relative viability: 0.0782

## NCI-H1993
AZ628 + Linsitinib; first compound 0.08 µM
  relative viability: 0.761
AZ628 + Linsitinib; first compound 0.253 µM
  relative viability: 0.59
AZ628 + Linsitinib; first compound 0.8 µM
  relative viability: 0.716
AZ628 + Linsitinib; first compound 2.53 µM
  relative viability: 0.824
AZ628 + Linsitinib; first compound 8 µM
  relative viability: 0.711
QS11 + AZD7762; first compound 0.08 µM
  relative viability: 0.793
QS11 + AZD7762; first compound 0.253 µM
  relative viability: 0.88
QS11 + AZD7762; first compound 0.8 µM
  relative viability: 0.927
QS11 + AZD7762; first compound 2.53 µM
  relative viability: 0.771
QS11 + AZD7762; first compound 8 µM
  relative viability: 0.615
AZ628 + Palbociclib; first compound 0.08 µM
  relative viability: 0.685
AZ628 + Palbociclib; first compound 0.253 µM
  relative viability: 0.548
AZ628 + Palbociclib; first compound 0.8 µM
  relative viability: 0.496
AZ628 + Palbociclib; first compound 2.53 µM
  relative viability: 0.595
AZ628 + Palbociclib; first compound 8 µM
  relative viability: 0.266
AZ628 + Tozasertib; first compound 0.08 µM
  relative viability: 0.613
AZ628 + Tozasertib; first compound 0.253 µM
  relative viability: 0.617
AZ628 + Tozasertib; first compound 0.8 µM
  relative viability: 0.591
AZ628 + Tozasertib; first compound 2.53 µM
  relative viability: 0.602
AZ628 + Tozasertib; first compound 8 µM
  relative viability: 0.555

## EMC-BAC-2
AZ628 + Linsitinib; first compound 0.08 µM
  relative viability: 0.77
AZ628 + Linsitinib; first compound 0.253 µM
  relative viability: 0.723
AZ628 + Linsitinib; first compound 0.8 µM
  relative viability: 0.782
AZ628 + Linsitinib; first compound 2.53 µM
  relative viability: 0.744
AZ628 + Linsitinib; first compound 8 µM
  relative viability: 0.762
QS11 + AZD7762; first compound 0.08 µM
  relative viability: 1.1
QS11 + AZD7762; first compound 0.253 µM
  relative viability: 0.99
QS11 + AZD7762; first compound 0.8 µM
  relative viability: 0.957
QS11 + AZD7762; first compound 2.53 µM
  relative viability: 0.989
QS11 + AZD7762; first compound 8 µM
  relative viability: 0.856
AZ628 + Palbociclib; first compound 0.08 µM
  relative viability: 0.521
AZ628 + Palbociclib; first compound 0.253 µM
  relative viability: 0.55
AZ628 + Palbociclib; first compound 0.8 µM
  relative viability: 0.535
AZ628 + Palbociclib; first compound 2.53 µM
  relative viability: 0.519
AZ628 + Palbociclib; first compound 8 µM
  relative viability: 0.554
AZ628 + Tozasertib; first compound 0.08 µM
  relative viability: 0.294
AZ628 + Tozasertib; first compound 0.253 µM
  relative viability: 0.335
AZ628 + Tozasertib; first compound 0.8 µM
  relative viability: 0.381
AZ628 + Tozasertib; first compound 2.53 µM
  relative viability: 0.349
AZ628 + Tozasertib; first compound 8 µM
  relative viability: 0.362

## RERF-LC-KJ
AZ628 + Linsitinib; first compound 0.08 µM
  relative viability: 0.799
AZ628 + Linsitinib; first compound 0.253 µM
  relative viability: 0.874
AZ628 + Linsitinib; first compound 0.8 µM
  relative viability: 0.841
AZ628 + Linsitinib; first compound 2.53 µM
  relative viability: 0.855
AZ628 + Linsitinib; first compound 8 µM
  relative viability: 0.7
QS11 + AZD7762; first compound 0.08 µM
  relative viability: 1.06
QS11 + AZD7762; first compound 0.253 µM
  relative viability: 0.836
QS11 + AZD7762; first compound 0.8 µM
  relative viability: 0.728
QS11 + AZD7762; first compound 2.53 µM
  relative viability: 0.879
QS11 + AZD7762; first compound 8 µM
  relative viability: 0.945
AZ628 + Palbociclib; first compound 0.08 µM
  relative viability: 1.07
AZ628 + Palbociclib; first compound 0.253 µM
  relative viability: 1.09
AZ628 + Palbociclib; first compound 0.8 µM
  relative viability: 0.994
AZ628 + Palbociclib; first compound 2.53 µM
  relative viability: 1.13
AZ628 + Palbociclib; first compound 8 µM
  relative viability: 0.843
AZ628 + Tozasertib; first compound 0.08 µM
  relative viability: 0.506
AZ628 + Tozasertib; first compound 0.253 µM
  relative viability: 0.526
AZ628 + Tozasertib; first compound 0.8 µM
  relative viability: 0.452
AZ628 + Tozasertib; first compound 2.53 µM
  relative viability: 0.493
AZ628 + Tozasertib; first compound 8 µM
  relative viability: 0.307

## H3255
AZ628 + Linsitinib; first compound 0.08 µM
  relative viability: 0.965
AZ628 + Linsitinib; first compound 0.253 µM
  relative viability: 0.859
AZ628 + Linsitinib; first compound 0.8 µM
  relative viability: 0.965
AZ628 + Linsitinib; first compound 2.53 µM
  relative viability: 0.968
AZ628 + Linsitinib; first compound 8 µM
  relative viability: 0.737
QS11 + AZD7762; first compound 0.08 µM
  relative viability: 0.931
QS11 + AZD7762; first compound 0.253 µM
  relative viability: 0.946
QS11 + AZD7762; first compound 0.8 µM
  relative viability: 0.634
QS11 + AZD7762; first compound 2.53 µM
  relative viability: 1.01
QS11 + AZD7762; first compound 8 µM
  relative viability: 0.902
AZ628 + Palbociclib; first compound 0.08 µM
  relative viability: 0.284
AZ628 + Palbociclib; first compound 0.253 µM
  relative viability: 0.297
AZ628 + Palbociclib; first compound 0.8 µM
  relative viability: 0.309
AZ628 + Palbociclib; first compound 2.53 µM
  relative viability: 0.326
AZ628 + Palbociclib; first compound 8 µM
  relative viability: 0.328
AZ628 + Tozasertib; first compound 0.08 µM
  relative viability: 0.863
AZ628 + Tozasertib; first compound 0.253 µM
  relative viability: 0.613
AZ628 + Tozasertib; first compound 0.8 µM
  relative viability: 0.915
AZ628 + Tozasertib; first compound 2.53 µM
  relative viability: 0.62
AZ628 + Tozasertib; first compound 8 µM
  relative viability: 0.487

## HCC-827
AZ628 + Linsitinib; first compound 0.08 µM
  relative viability: 0.979
AZ628 + Linsitinib; first compound 0.253 µM
  relative viability: 1.01
AZ628 + Linsitinib; first compound 0.8 µM
  relative viability: 1.01
AZ628 + Linsitinib; first compound 2.53 µM
  relative viability: 0.973
AZ628 + Linsitinib; first compound 8 µM
  relative viability: 0.918
QS11 + AZD7762; first compound 0.08 µM
  relative viability: 0.194
QS11 + AZD7762; first compound 0.253 µM
  relative viability: 0.201
QS11 + AZD7762; first compound 0.8 µM
  relative viability: 0.234
QS11 + AZD7762; first compound 2.53 µM
  relative viability: 0.307
QS11 + AZD7762; first compound 8 µM
  relative viability: 0.187
AZ628 + Palbociclib; first compound 0.08 µM
  relative viability: 0.474
AZ628 + Palbociclib; first compound 0.253 µM
  relative viability: 0.456
AZ628 + Palbociclib; first compound 0.8 µM
  relative viability: 0.357
AZ628 + Palbociclib; first compound 2.53 µM
  relative viability: 0.487
AZ628 + Palbociclib; first compound 8 µM
  relative viability: 0.311
AZ628 + Tozasertib; first compound 0.08 µM
  relative viability: 0.43
AZ628 + Tozasertib; first compound 0.253 µM
  relative viability: 0.468
AZ628 + Tozasertib; first compound 0.8 µM
  relative viability: 0.374
AZ628 + Tozasertib; first compound 2.53 µM
  relative viability: 0.494
AZ628 + Tozasertib; first compound 8 µM
  relative viability: 0.344

## LXF-289
AZ628 + Linsitinib; first compound 0.08 µM
  relative viability: 1.02
AZ628 + Linsitinib; first compound 0.253 µM
  relative viability: 0.949
AZ628 + Linsitinib; first compound 0.8 µM
  relative viability: 0.932
AZ628 + Linsitinib; first compound 2.53 µM
  relative viability: 0.92
AZ628 + Linsitinib; first compound 8 µM
  relative viability: 0.589
QS11 + AZD7762; first compound 0.08 µM
  relative viability: 1.14
QS11 + AZD7762; first compound 0.253 µM
  relative viability: 1.08
QS11 + AZD7762; first compound 0.8 µM
  relative viability: 0.899
QS11 + AZD7762; first compound 2.53 µM
  relative viability: 1
QS11 + AZD7762; first compound 8 µM
  relative viability: 0.93
AZ628 + Palbociclib; first compound 0.08 µM
  relative viability: 0.617
AZ628 + Palbociclib; first compound 0.253 µM
  relative viability: 0.658
AZ628 + Palbociclib; first compound 0.8 µM
  relative viability: 0.592
AZ628 + Palbociclib; first compound 2.53 µM
  relative viability: 0.621
AZ628 + Palbociclib; first compound 8 µM
  relative viability: 0.44
AZ628 + Tozasertib; first compound 0.08 µM
  relative viability: 0.199
AZ628 + Tozasertib; first compound 0.253 µM
  relative viability: 0.213
AZ628 + Tozasertib; first compound 0.8 µM
  relative viability: 0.195
AZ628 + Tozasertib; first compound 2.53 µM
  relative viability: 0.174
AZ628 + Tozasertib; first compound 8 µM
  relative viability: 0.155
